Measured values published in BigSolDB 2.1.

Conditions: in acetic acid

## CO[C@H]1/C=C/O[C@@]2(C)Oc3c(C)c(O)c4c(O)c(c(/C=N/N5CCN(C6CCCC6)CC5)c(O)c4c3C2=O)NC(=O)/C(C)=C\C=C\[C@H](C)[C@H](O)[C@@H](C)[C@@H](O)[C@@H](C)[C@H](OC(C)=O)[C@@H]1C
278.15 K
  solubility (mole fraction): 0.0523
283.15 K
  solubility (mole fraction): 0.0558
288.15 K
  solubility (mole fraction): 0.0595
293.15 K
  solubility (mole fraction): 0.0632
297.15 K
  solubility (mole fraction): 0.067
303.15 K
  solubility (mole fraction): 0.0707
308.15 K
  solubility (mole fraction): 0.0755
313.15 K
  solubility (mole fraction): 0.0805
318.15 K
  solubility (mole fraction): 0.0858
323.15 K
  solubility (mole fraction): 0.0913
